Experimental data reported in patent US12209087B2, “AKT1 modulators” (Alterome Therapeutics, Inc., priority 2022, dated 2025).

These compounds were tested against T1, full length AKT E17K (Homo sapiens, UniProt P31749, E17K) (assay: NanoBRET Target Engagement (TE) Assay). Conditions: competitive displacement of tracer in cells, read-out: AKT1 E17K IC50.
T1 construct: host or cells: HEK-293 (ATCC CRL-1573)
Type: cell-based
Summary of the method: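 Compound and tracer incubated 2 h before luminescence at donor 450 nm and acceptor 600 nm, with extracellular signal inhibited. EC50 by sigmoidal variable-slope regression.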

T1 sequence (P31749 whole entry E17K): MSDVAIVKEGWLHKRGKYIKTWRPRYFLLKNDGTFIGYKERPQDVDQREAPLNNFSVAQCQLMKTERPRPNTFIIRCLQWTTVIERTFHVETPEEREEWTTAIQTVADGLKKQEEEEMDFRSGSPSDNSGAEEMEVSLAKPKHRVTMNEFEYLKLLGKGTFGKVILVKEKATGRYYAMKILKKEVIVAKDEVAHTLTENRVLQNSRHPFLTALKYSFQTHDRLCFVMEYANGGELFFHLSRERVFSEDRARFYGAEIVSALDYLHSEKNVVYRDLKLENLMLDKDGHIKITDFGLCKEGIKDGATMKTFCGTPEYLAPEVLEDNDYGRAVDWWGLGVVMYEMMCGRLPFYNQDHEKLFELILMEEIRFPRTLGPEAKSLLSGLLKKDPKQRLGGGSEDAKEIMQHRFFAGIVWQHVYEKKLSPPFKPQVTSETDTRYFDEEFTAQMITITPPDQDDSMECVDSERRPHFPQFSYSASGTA

Row | IC50 | Structure (SMILES)
1 | < 15 nM | CC(C)OC(=O)c1ccc2nc(-c3cccnc3N)n(-c3ccc(CN4CCC(Nc5ccnc(C#N)n5)CC4)cc3)c2n1 [Example 531, Isopropyl 2-(2-aminopyridin-3-yl)-3-(4-((4-((2-cyanopyrimidin-4-yl)amino)piperidin-1-yl)methyl)phenyl)-3H-imidazo[4,5-b]pyridine-5-carboxylate]
2 | 15 to 60 nM | N#Cc1cnc2c(c1)nc(-c1cccnc1N)n2-c1ccc(CN2CCC(Nc3ccnc(C#N)n3)CC2)cc1 [Example 411, 2-(2-Aminopyridin-3-yl)-3-(4-((4-((2-cyanopyrimidin-4-yl)amino)piperidin-1-yl)methyl)phenyl)-3H-imidazo[4,5-b]pyridine-6-carbonitrile]
3 | < 15 nM | N#Cc1nccc(NC2CCN(Cc3ccc(-n4c(-c5cccnc5N)nc5ccc(N6CCC6)nc54)cc3)CC2)n1 [Example 460, 4-((1-(4-(2-(2-Aminopyridin-3-yl)-5-(azetidin-1-yl)-3H-imidazo[4,5-b]pyridin-3-yl)benzyl)piperidin-4-yl)amino)pyrimidine-2-carbonitrile]
4 | < 15 nM | CCn1ncc(-c2ccc3nc(-c4nccnc4N)n(-c4ccc(CN5CCC(Nc6ccnc(C#N)n6)CC5)cc4)c3n2)n1 [Example 629, 4-((1-(4-(2-(3-Aminopyrazin-2-yl)-5-(2-ethyl-2H-1,2,3-triazol-4-yl)-3H-imidazo[4,5-b]pyridin-3-yl)benzyl)piperidin-4-yl)amino)pyrimidine-2-carbonitrile]
5 | < 15 nM | N#Cc1nccc(NC2CCN(Cc3ccc(-n4c(-c5cccnc5N)nc5ccc(CF)nc54)cc3)CC2)n1 [Example 509, 4-((1-(4-(2-(2-Aminopyridin-3-yl)-5-(fluoromethyl)-3H-imidazo[4,5-b]pyridin-3-yl)benzyl)piperidin-4-yl)amino)pyrimidine-2-carbonitrile]
6 | < 15 nM | Cc1cc2nc(-c3cccnc3N)n(-c3ccc(CN4CCC(Nc5ccnc(C#N)n5)CC4)cc3)c2nc1-c1ccc(F)cc1 [Example 499, 4-((1-(4-(2-(2-aminopyridin-3-yl)-5-(4-fluorophenyl)-6-methyl-3H-imidazo[4,5-b]pyridin-3-yl)benzyl)piperidin-4-yl)amino)pyrimidine-2-carbonitrile]
7 | 15 to 60 nM | N#Cc1nccc(NC2CCN(Cc3ccc(-n4c(-c5cccnc5N)nc5ccc(-c6ccc(=O)n(C(F)F)c6)nc54)cc3)CC2)n1 [Example 617, 4-((1-(4-(2-(2-Aminopyridin-3-yl)-5-(1-(difluoromethyl)-6-oxo-1,6-dihydropyridin-3-yl)-3H-imidazo[4,5-b]pyridin-3-yl)benzyl)piperidin-4-yl)amino)pyrimidine-2-carbonitrile]
8 | < 15 nM | N#Cc1nccc(N2CCN(Cc3ccc(-n4c(-c5cccnc5N)nc5ccc(-c6ncccc6C#N)nc54)cc3)CC2)n1 [Example 407, 4-(4-(4-(2-(2-Aminopyridin-3-yl)-5-(3-cyanopyridin-2-yl)-3H-imidazo[4,5-b]pyridin-3-yl)benzyl)piperazin-1-yl)pyrimidine-2-carbonitrile]
9 | < 15 nM | N#Cc1nccc(NC2CCN(Cc3ccc(-n4c(-c5cccnc5N)nc5ccc(-c6cccc(N)c6)nc54)cc3)CC2)n1 [Example 517, 4-((1-(4-(5-(3-Aminophenyl)-2-(2-aminopyridin-3-yl)-3H-imidazo[4,5-b]pyridin-3-yl)benzyl)piperidin-4-yl)amino)pyrimidine-2-carbonitrile]
10 | < 15 nM | [2H]C([2H])([2H])Oc1ccc(-c2ccc3nc(-c4cccnc4N)n(-c4ccc(CN5CCC(Nc6ccnc(C#N)n6)CC5)cc4)c3n2)nc1 [Example 578, 4-((1-(4-(2-(2-Aminopyridin-3-yl)-5-(5-(methoxy-d)pyridin-2-yl)-3H-imidazo[4,5-b]pyridin-3-yl)benzyl)piperidin-4-yl)amino)pyrimidine-2-carbonitrile]
11 | < 15 nM | [2H]C([2H])([2H])Oc1ccc(-c2ccc3nc(-c4nccnc4N)n(-c4ccc(CN5CCC(Nc6ccnc(C#N)n6)CC5)cc4)c3n2)nc1 [Example 638, 4-((1-(4-(2-(3-Aminopyrazin-2-yl)-5-(5-(methoxy-d3)pyridin-2-yl)-3H-imidazo[4,5-b]pyridin-3-yl)benzyl)piperidin-4-yl)amino)pyrimidine-2-carbonitrile]

Same assay, conditions: competitive tracer displacement in living cells, read-out: AKT1 E17K IC50

Row | IC50 | Structure (SMILES)
12 | 15 to 60 nM | N#Cc1ccnc(N2C[C@H]3C[C@@H]2CN3Cc2ccc(-n3c(-c4cccnc4N)nc4ccc(-c5ccccc5)nc43)cc2)n1 [Example 217, 2-((1R,4R)-5-(4-(2-(2-Aminopyridin-3-yl)-5-phenyl-3H-imidazo[4,5-b]pyridin-3-yl)benzyl)-2,5-diazabicyclo[2.2.1]heptan-2-yl)pyrimidine-4-carbonitrile]
13 | 600 to 10000 nM | N#Cc1cccc(C(=O)N2CCN(Cc3ccc(-n4c(-c5cccnc5N)nc5cccnc54)cc3)CC2)n1 [Example 69, 6-(4-(4-(2-(2-Aminopyridin-3-yl)-3H-imidazo[4,5-b]pyridin-3-yl)benzyl)piperazine-1-carbonyl)picolinonitrile]
14 | 15 to 60 nM | N#Cc1cc(N2CCN(Cc3ccc(-n4c(-c5cccnc5N)nc5ccc(-c6ccccc6)nc54)cc3)CC2)ccn1 [Example 82, 4-(4-(4-(2-(2-Aminopyridin-3-yl)-5-phenyl-3H-imidazo[4,5-b]pyridin-3-yl)benzyl)piperazin-1-yl)picolinonitrile]
15 | < 15 nM | N#Cc1nccc(NC2CCN(Cc3ccc(-n4c(-c5cccnc5N)nc5ccc(-c6ccc(Cl)cc6)nc54)cc3)CC2)n1 [Example 308, 4-((1-(4-(2-(2-Aminopyridin-3-yl)-5-(4-chlorophenyl)-3H-imidazo[4,5-b]pyridin-3-yl)benzyl)piperidin-4-yl)amino)pyrimidine-2-carbonitrile]
16 | 60 to 600 nM | N#Cc1cc(N2CCN(Cc3ccc(-n4c(-c5cccnc5N)nc5ccc(N6CCCNC(=O)C6)nc54)cc3)CC2)ncn1 [Example 284, 6-(4-(4-(2-(2-Aminopyridin-3-yl)-5-(3-oxo-1,4-diazepan-1-yl)-3H-imidazo[4,5-b]pyridin-3-yl)benzyl)piperazin-1-yl)pyrimidine-4-carbonitrile]
17 | 600 to 10000 nM | N#Cc1cncnc1C(=O)N1CCN(Cc2ccc(-n3c(-c4cccnc4N)nc4ccc(-c5ccccc5)nc43)cc2)CC1 [Example 72, 4-(4-(4-(2-(2-Aminopyridin-3-yl)-5-phenyl-3H-imidazo[4,5-b]pyridin-3-yl)benzyl)piperazine-1-carbonyl)pyrimidine-5-carbonitrile]
18 | 60 to 600 nM | N#Cc1nc2cc(F)cc(C(=O)NC3CCN(Cc4ccc(-n5c(-c6cccnc6N)nc6ccc(-c7ccccc7)nc65)cc4)CC3)c2s1 [Example 182, N-(1-(4-(2-(2-aminopyridin-3-yl)-5-phenyl-3H-imidazo[4,5-b]pyridin-3-yl)benzyl)piperidin-4-yl)-2-cyano-5-fluorobenzo[d]thiazole-7-carboxamide]
19 | 60 to 600 nM | N#Cc1cc(C(=O)N2CCN(Cc3ccc(-n4c(-c5cccnc5N)nc5cccnc54)cc3)CC2)ncn1 [Example 114, 6-(4-(4-(2-(2-Aminopyridin-3-yl)-3H-imidazo[4,5-b]pyridin-3-yl)benzyl)piperazine-1-carbonyl)pyrimidine-4-carbonitrile]
20 | < 15 nM | CC(C)c1ccc2nc(-c3cccnc3N)n(-c3ccc(CN4CCC(Nc5ccnc(C#N)n5)CC4)cc3)c2n1 [Example 286, 4-((1-(4-(2-(2-Aminopyridin-3-yl)-5-isopropyl-3H-imidazo[4,5-b]pyridin-3-yl)benzyl)piperidin-4-yl)amino)pyrimidine-2-carbonitrile]
21 | 15 to 60 nM | N#Cc1cnccc1C(=O)NC1CCN(Cc2ccc(-n3c(-c4cccnc4N)nc4ccc(-c5ccccc5)nc43)cc2)CC1 [Example 59, N-(1-(4-(2-(2-Aminopyridin-3-yl)-5-phenyl-3H-imidazo[4,5-b]pyridin-3-yl)benzyl)piperidin-4-yl)-3-cyanoisonicotinamide]
22 | 60 to 600 nM | N#Cc1cccc(N2CCN(Cc3ccc(-n4c(-c5cccnc5N)nc5ccc(-c6ccccc6)nc54)cc3)CC2)n1 [Example 83, 6-(4-(4-(2-(2-Aminopyridin-3-yl)-5-phenyl-3H-imidazo[4,5-b]pyridin-3-yl)benzyl)piperazin-1-yl)picolinonitrile]
23 | < 15 nM | N#Cc1nc(C(=O)N2CCN(Cc3ccc(-n4c(-c5cccnc5N)nc5ccc(-c6ccccc6)nc54)cc3)CC2)cs1 [Example 247, 4-(4-(4-(2-(2-Aminopyridin-3-yl)-5-phenyl-3H-imidazo[4,5-b]pyridin-3-yl)benzyl)piperazine-1-carbonyl)thiazole-2-carbonitrile]
24 | 600 to 10000 nM | N#Cc1cccnc1OC1CCN(Cc2ccc(-n3c(-c4cccnc4N)nc4cccnc43)cc2)CC1 [Example 6, 2-((1-(4-(2-(2-aminopyridin-3-yl)-3H-imidazo[4,5-b]pyridin-3-yl)benzyl)piperidin-4-yl)oxy)nicotinonitrile]
25 | 600 to 10000 nM | N#Cc1cc(C(=O)NC2CCN(Cc3ccc(-n4c(-c5cccnc5N)nc5cccnc54)cc3)CC2)ccn1 [Example 23, N-(1-(4-(2-(2-aminopyridin-3-yl)-3H-imidazo[4,5-b]pyridin-3-yl)benzyl)piperidin-4-yl)-2-cyanoisonicotinamide]
26 | 600 to 10000 nM | N#Cc1cncc(C(=O)NC2CCN(Cc3ccc(-n4c(-c5cccnc5N)nc5cccnc54)cc3)CC2)c1 [Example 26, N-(1-(4-(2-(2-aminopyridin-3-yl)-3H-imidazo[4,5-b]pyridin-3-yl)benzyl)piperidin-4-yl)-5-cyanonicotinamide]
27 | 600 to 10000 nM | N#Cc1ccc(C(=O)NC2CCN(Cc3ccc(-n4c(-c5cccnc5N)nc5cc(-c6ccccc6)cnc54)cc3)CC2)cn1 [Example 165, N-(1-(4-(2-(2-aminopyridin-3-yl)-6-phenyl-3H-imidazo[4,5-b]pyridin-3-yl)benzyl)piperidin-4-yl)-6-cyanonicotinamide]
28 | 60 to 600 nM | N#Cc1ccnc(N2CCN(Cc3ccc(-n4c(-c5cccnc5N)nc5ccc(-c6ccc(F)cc6)nc54)cc3)CC2)n1 [Example 243, 2-(4-(4-(2-(2-Aminopyridin-3-yl)-5-(4-fluorophenyl)-3H-imidazo[4,5-b]pyridin-3-yl)benzyl)piperazin-1-yl)pyrimidine-4-carbonitrile]
